Patent US6828315B1, “1-Amino triazoloc4,3-a! quinazoline-5-ones and/or -5-thiones inhibiting phosphodiesterase IV” (Warner-Lambert LLC, priority 1999, dated 2004)
Where a name gives a salt, the structure may show the parent alone.

melting point | SMILES
215 °C | CCN(CC)CCn1c(=O)c2cc(Br)ccc2n2c(N3CCCC3)nnc12 (as salt: HCl) [Compound 69, 7-Bromo-4-(2diethylamino-ethyl)-1-pyrrolidin-1-yl-4H-[1,2,4)triazolo[4,3-a]quinazolin-5-one]
157 °C | O=c1c2cc(Cl)ccc2n2c(N3CCCCCC3)nnc2n1Cc1cccc(Cl)c1 [Compound 10, 1-(azepan-1-yl)-7-chloro-4-(3-chlorobenzyl)-4H-[1,2,4]triazolo[4,3-a]quinazolin-5-one]
138 °C | O=c1c2cc(Cl)ccc2n2c(N3CCCCCC3)nnc2n1Cc1ccc(C(F)(F)F)cc1 [Compound 14, 1-(azepan-1-yl)-7chloro-4-(4-(trifluoromethyl)benzyl)-4H-[1,2,4]triazolo[4,3-a]quinazolin-5-one]
138 °C | COc1cccc(Cn2c(=O)c3cc(Cl)ccc3n3c(N4CCCCCC4)nnc23)c1 [Compound 17, 1-(azepan-1-yl)-7-chloro-4-(3-methoxybenzyl)-4H-[1,2,4]triazolo[4,3-a]quinazolin-5-one]
105 to 107 °C | O=C(Cn1c(=O)c2cc(Cl)ccc2n2c(N3CCCCCC3)nnc12)c1ccccc1 [Compound 27, 1-Azepan-1-yl-7-chloro-4-(2-oxo-2-phenyl-ethyl)-4H-[1,2,4]triazolo[4,3-a]quinazolin-5-one]
140 °C | COC(=O)c1cc(C(=O)Cn2c(=O)c3cc(Cl)ccc3n3c(N4CCCCCC4)nnc23)ccc1OC [Compound 30, 5-[(1-(azepan-1-yl)-7-chloro-5-oxo-5H-[1,2,4]triazolo[4,3-a]-quinazolin-4-yl)acetyl]-2-methoxybenzoic acid methyl ester]
176 °C | O=c1c2cc(Cl)ccc2n2c(N3CCCC3)nnc2n1Cc1cccnc1 [Compound 31, 7-Chloro-4-pyridin-3-ylmethyl-1-pyrrolidin-1-yl-4H-[1,2,4]triazolo[4,3-a]quinazolin-5-one]
158 °C | O=c1c2cc(Br)ccc2n2c(N3CCCCCC3)nnc2n1Cc1ccc(F)cc1 [Compound 33, 1-Azepan-1-yl-7-bromo-4-(4-fluoro-benzyl)-4H-[1,2,4]triazolo[4,3-a]quinazolin-5-one]
180 °C | O=c1c2cc(Br)ccc2n2c(N3CCCCCC3)nnc2n1Cc1cccnc1 [Compound 36, 1-(azepan-1-yl)-7-bromo-4-(3-pyridinylmethyl)-4H-[1,2,4]triazolo[4,3-a]quinazolin-5-one]
129 °C | COc1ccc(C=CCn2c(=O)c3cc(Br)ccc3n3c(N4CCCCCC4)nnc23)cc1 [Compound 39, 1-Azepan-1-yl-7-bromo-4-[3-(4-methoxy-phenyl)-allyl]-4H-[1,2,4]triazolo[4,3-a]quinazolin-5-one]
206 °C | N#Cc1cccc(Cn2c(=O)c3cc(Br)ccc3n3c(N4CCCC4)nnc23)c1 [Compound 45, 3-(7-Bromo-5-oxo-1-pyrrolidin-1-yl-5H-[1,2,4]triazolo[4,3-a]quinazolin-4-ylmethyl)benzonitrile]
260 °C | O=C(O)Cc1ccc(Cn2c(=O)c3cc(Br)ccc3n3c(N4CCCC4)nnc23)cc1 [Compound 56, [4-(7-Bromo-5-oxo-1-pyrrolidin-1-yl-5H-[1,2,4]triazolo[4,3-a]quinazolin-4-ylmethyl)-phenyl]-acetic acid]

Further lines, the molecule ahead of its results:

SMILES | melting point
O=c1c2cc(Br)ccc2n2c(N3CCCC3)nnc2n1Cc1ccc2c(c1)OCO2 (hydrate or solvate) [Compound 53, 4-Benzo[1,3]dioxol-5-ylmethyl-7-bromo-1-pyrrolidin-1-yl-4H-[1,2,4]triazolo[4,3-a]quinazolin-5-one] | 194 °C
O=c1nc2n(Cc3ccc4c(c3)OCO4)nc(N3CCCC3)n2c2ccc(Br)cc12 (hydrate or solvate) [Compound 149, 3-(benzo[1,3]dioxol-5-ylmethyl)-7-bromo-1-(pyrrolidin-1-yl)-3H-[1,2,4]triazolo[4,3-a]quinazolin-5-one] | 234 °C
O=c1c2ccccc2n2c(N3CCCCCC3)nnc2n1CC=Cc1ccccc1 [Compound 6, 1-Azepan-1-yl-4-(3-phenyl-allyl)-4H-[1,2,4]triazolo[4,3-a]quinazolin-5-one] | 144 °C
O=c1c2cc(Cl)ccc2n2c(N3CCCCCC3)nnc2n1Cc1ccccc1Cl [Compound 9, 1-(azepan-1-yl)-7-chloro-4-(2-chlorobenzyl)-4H-[1,2,4]triazolo[4,3-a]quinazolin-5-one] | 160 to 162 °C
COc1ccccc1Cn1c(=O)c2cc(Cl)ccc2n2c(N3CCCCCC3)nnc12 [Compound 16, 1-(azepan-1-yl)-7-chloro-4-(2-methoxybenzyl)-4H-[1,2,4]triazolo[4,3-a]quinazolin-5-one] | 98 to 100 °C
COc1ccc(Cn2c(=O)c3cc(Cl)ccc3n3c(N4CCCCCC4)nnc23)cc1 [Compound 18, 1-(azepan-1-yl)-7-chloro-4-(4-methoxybenzyl)-4H-[1,2,4]triazolo[4,3-a]quinazolin-5-one] | 138 °C
O=c1c2cc(Cl)ccc2n2c(N3CCCCCC3)nnc2n1Cc1ccccn1 [Compound 21, 1-(azepan-1-yl)-7-chloro-4-(2-pyridylmethyl)-4H-[1,2,4]triazolo[4,3-a]quinazolin-5-one] | 152 °C
O=c1c2cc(Cl)ccc2n2c(N3CCCCCC3)nnc2n1Cc1ccncc1 [Compound 23, 1-(azepan-1-yl)-7-chloro-4-(4-pyridylmethyl)-4H-[1,2,4]triazolo[4,3-a]quinazolin-5-one] | 137 °C
COc1ccc(CCn2c(=O)c3cc(Cl)ccc3n3c(N4CCCCCC4)nnc23)cc1 [Compound 25, 1-(azepan-1-yl)-7-chloro-4-[2-(4-methoxyphenyl)ethyl]-4H-[1,2,4]triazolo[4,3-a]quinazolin-5-one] | 136 °C
O=C(Cn1c(=O)c2cc(Cl)ccc2n2c(N3CCCCCC3)nnc12)c1ccc(Cl)cc1 [Compound 29, 1-(azepan-1-yl)-7-chloro-4[2-(4-chlorophenyl)-2-oxoethyl]-4H-[1,2,4]triazolo[4,3-a]quinazolin-5-one] | 190 °C
O=c1c2cc(Br)ccc2n2c(N3CCCCCC3)nnc2n1CC=Cc1ccc(Cl)cc1 [Compound 38, 1-Azepan-1-yl-7-bromo-4-[3-(4-chloro-phenyl)-allyl]-4H-[1,2,4]triazolo[4,3-a]quinazolin-5-one] | 176 °C
COc1cc(Cn2c(=O)c3cc(Br)ccc3n3c(N4CCCC4)nnc23)cc(OC)c1OC [Compound 55, 7-Bromo-1-pyrrolidin-1-yl-4-(3,4,5-trimethoxy-benzyl)-4H-[1,2,4]triazolo[4,3-a]quinazolin-5-one] | 141 to 143 °C
O=c1c2cc(Br)ccc2n2c(N3CCCC3)nnc2n1CC=Cc1ccccc1 [Compound 58, 7-Bromo-4-(3-phenyl-allyl)-1-pyrrolidin-1-yl-4H-[1,2,4]triazolo[4,3-a]quinazolin-5-one] | 110 °C
O=c1c2cc(Br)ccc2n2c(N3CCCC3)nnc2n1Cc1c[nH]cn1 [Compound 63, 7-Bromo-4-(1H-imidazol-4-ylmethyl)-1-pyrrolidin-1-yl-4H-[1,2,4]triazolo[4,3-a]quinazolin-5-one] | 290 °C (dec.)
Cc1noc(C)c1Cn1c(=O)c2cc(Br)ccc2n2c(N3CCCC3)nnc12 [Compound 64, 7-Bromo-4-(3,5-dimethyl-isoxazol-4-ylmethyl)-1-pyrrolidin-1-yl-4H-[1,2,4]triazolo[4,3-a]quinazolin-5-one] | 221 °C
